# Laboratory results from patent US20240124422A1, “MUTANT PI3K-ALPHA INHIBITORS AND THEIR USE AS PHARMACEUTICALS” (Prelude Therapeutics Incorporated, priority 2022, published 2024).
# System: phosphorylation of AKT on Ser473 as a readout of the PI3K pathway in T-47D (heterozygous PIK3CA H1047R) cells
# Experiment: PI3K pathway activation assay, pAKT Ser473 HTRF, T-47D cells
# Format: cell-based
# Settings: Homo sapiens, T47D, 2 h, two hours of treatment
# Procedure: The inhibitory activity of compounds was evaluated by measuring phosphorylation of AKT on Ser473 as a readout of the PI3K pathway using HTRF (CisBio catalog number: 64AKSPE). These studies were conducted in the T-47D (heterozygous PIK3CA H1047R) and SKBR3 (PIK3CA WT) cell lines. Cells were maintained in a 37° C. incubator at 5% CO2 in the following media: T-47D: RPMI 1640, ATCC© Modification (Gibco, A10491-01) supplemented with 10% v/v FBS (Gibco, 26140-079), 1% penicillin streptomycin (Gibco, 15140-122), and 7.4 ug/mL insulin (MilliporeSigma, I9278); SKBR3: McCoy's 5a (Modified) Medium (Gibco, 16600-082) supplemented with 10% v/v FBS (Gibco, 26140-079). Cells were seeded in 384-well plates at a density of 4,000 cells/well. Compounds dissolved in DMSO were added using a digital dispense (D300E, Tecan) 10-point serial dilution. After two hours of treatment, cells were lysed for thirty minutes and then incubated with detection reagents per HTRF kit material and manufacturer's instructions. Fluorescence signal was measured with a multimode plate reader (Envision 2105, Perkin Elmer). Fluorescent signal was normalized to background and DMSO controls to obtain percent inhibition/activity for each compound.
row,SMILES,IC50 [nM]
1,"Cc1cc(C(C)Nc2ccccc2C(=O)O)c2nc(N3CC4(CCC4(F)F)C3)n(C)c(=O)c2c1 (stereo not shown) [Example 106, 2-[1-[2-(7,7-difluoro-2-azaspiro[3.3]heptan-2-yl)-3,6-dimethyl-4-oxoquinazolin-8-yl]ethylamino]benzoic acid]",< 500
2,"Cc1cc(C(Nc2ccccc2C(=O)O)C(F)F)c2nc(N3CC4CC4C3)n(C)c(=O)c2c1 (stereo not shown) [Example 96, 2-((1-(2-(3-azabicyclo[3.1.0]hexan-3-yl)-3,6-dimethyl-4-oxo-3,4-dihydro-quinazolin-8-yl)-2,2-difluoroethyl)amino)benzoic acid]",500 to 10000
3,"COc1cccc(NC(C)c2cc(C)cc3c(=O)n(C)c(N4Cc5ccccc5C4)nc23)c1C(=O)O (stereo not shown) [Example 29, 2-((1-(2-(isoindolin-2-yl)-3,6-dimethyl-4-oxo-3,4-dihydroquinazolin-8-yl)ethyl)amino)-6-methoxybenzoic acid]",500 to 10000
4,"Cc1cc(C(C)Nc2ccccc2C(=O)O)c2nc(N3Cc4ccccc4C3)n(-c3cccnc3)c(=O)c2c1 (stereo not shown) [Example 18, 2-((1-(2-(isoindolin-2-yl)-6-methyl-4-oxo-3-(pyridin-3-yl)-3,4-dihydroquinazolin-8-yl)ethyl)amino)benzoic acid]",500 to 10000
5,"Cc1cc(C(C)Nc2ccccc2C(=O)O)c2nc(N3CCC(C#N)CC3)n(C)c(=O)c2c1 (stereo not shown) [Example 44, 2-((1-(2-(4-cyanopiperidin-1-yl)-3,6-dimethyl-4-oxo-3,4-dihydroquinazolin-8-yl)ethyl)amino)benzoic acid]",500 to 10000
6,"Cc1cc(C(C)Nc2ccccc2C(=O)O)c2nc(N3CC4CC4C3)n(CC(F)(F)F)c(=O)c2c1 (stereo not shown) [Example 103, 2-((1-(2-(3-Azabicyclo[3.1.0]hexan-3-yl)-6-methyl-4-oxo-3-(2,2,2-trifluoroethyl)-3,4-dihydroquinazolin-8-yl)ethyl)amino)benzoic acid]",500 to 10000
7,"Cc1cc(C(C)Nc2ccccc2C(=O)O)c2nc(N3C4CCC3CC4)n(C)c(=O)c2c1 (stereo not shown) [Example 111, 2-[1-[2-(7-azabicyclo[2.2.1]heptan-7-yl)-3,6-dimethyl-4-oxoquinazolin-8-yl]ethylamino]benzoic acid]",< 500
8,"CC(=O)N1C[C@H]2CN(c3nc4c(C(C)Nc5ccccc5C(=O)O)cc(C)cc4c(=O)n3C)C[C@@H]2C1 (stereo partly drawn) [Example 66, 2-((1-(2-((3aR,6aR)-5-Acetylhexahydropyrrolo[3,4-c]pyrrol-2(1H)-yl)-3,6-dimethyl-4-oxo-3,4-dihydroquinazolin-8-yl)ethyl)amino)benzoic acid]",500 to 10000
9,"Cc1cc(C(C)Nc2ccc(C(F)(F)F)cc2C(=O)O)c2nc(N3Cc4ccccc4C3)n(C)c(=O)c2c1 (stereo not shown) [Example 30, 2-((1-(2-(isoindolin-2-yl)-3,6-dimethyl-4-oxo-3,4-dihydroquinazolin-8-yl)ethyl)amino)-5-(trifluoromethyl)benzoic acid]",500 to 10000
10,"Cc1cc(C(C)Nc2ccccc2C(=O)O)c2nc(N3CCCC3(C)C)n(C)c(=O)c2c1 (stereo not shown) [Example 115, 2-((1-(2-(2,2-dimethylpyrrolidin-1-yl)-3,6-dimethyl-4-oxo-3,4-dihydroquinazolin-8-yl)ethyl)amino)benzoic acid]",< 500
11,"Cc1cc(C(C)Nc2ccccc2C(=O)O)c2nc(N3CCC(F)(F)CC3)n(C)c(=O)c2c1 (single isomer, unassigned) [Example 37, 2-((1-(2-(4,4-difluoropiperidin-1-yl)-3,6-dimethyl-4-oxo-3,4-dihydroquinazolin-8-yl)ethyl)amino)benzoic acid]",< 500
12,"Cc1cc(C(C)Nc2ccccc2C(=O)O)c2nc(N3CCC(O)CC3)n(C)c(=O)c2c1 (stereo not shown) [Example 57, 2-((1-(2-(4-hydroxypiperidin-1-yl)-3,6-dimethyl-4-oxo-3,4-dihydroquinazolin-8-yl)ethyl)amino)benzoic acid]",500 to 10000

# The next lines start with the values.
row,IC50 [nM],SMILES
1,500 to 10000,"Cc1cc(C(C)Nc2ccccc2C(=O)O)c2nc(N3CCC4(CC3)CC(NC(=O)OC(C)(C)C)C4)n(C)c(=O)c2c1 (stereo not shown) [Example 107, 2-[1-[3,6-dimethyl-2-[2-[(2-methylpropan-2-yl)oxycarbonylamino]-7-azaspiro[3.5]nonan-7-yl]-4-oxoquinazolin-8-yl]ethylamino]benzoic acid]"
2,< 500,"Cc1cc(C(C)Nc2ccccc2C(=O)O)c2nc(N3CC4CC4C3)n(C)c(=O)c2c1F (single isomer, unassigned) [Example 95, 2-((1-(2-(3-Azabicyclo[3.1.0]hexan-3-yl)-5-fluoro-3,6-dimethyl-4-oxo-3,4-dihydroquinazolin-8-yl)ethyl)amino)benzoic acid]"
3,500 to 10000,"CSc1ncc(NC(C)c2cc(C)cc3c(=O)n(C)c(N4CC5CC5C4)nc23)c(C(=O)O)n1 (stereo not shown) [Example 118, 5-((1-(2-(3-Azabicyclo[3.1.0]hexan-3-yl)-3,6-dimethyl-4-oxo-3,4-dihydroquinazolin-8-yl)ethyl)amino)-2-(methylthio)pyrimidine-4-carboxylic acid]"
4,500 to 10000,"CC(Nc1ccccc1C(=O)O)c1cc(C2CC2)cc2c(=O)n(C)c(N3CC4CC4C3)nc12 (stereo not shown) [Example 76, 2-((1-(2-(3-Azabicyclo[3.1.0]hexan-3-yl)-6-cyclopropyl-3-methyl-4-oxo-3,4-dihydroquinazolin-8-yl)ethyl)amino)benzoic acid]"
5,500 to 10000,"Cc1cc(C(Nc2ccccc2C(=O)O)C(F)(F)F)c2nc(N3CC4CC4C3)n(C)c(=O)c2c1 (stereo not shown) [Example 47, 2-[[1-[2-(3-azabicyclo[3.1.0]hexan-3-yl)-3,6-dimethyl-4-oxoquinazolin-8-yl]-2,2,2-trifluoroethyl]amino]benzoic acid]"
6,500 to 10000,"CC(Nc1ccccc1C(=O)O)c1cc(C(F)(F)F)cc2c(=O)n(C)c(N3CC4CC4C3)nc12 (stereo not shown) [Example 16, 2-((1-(2-(3-azabicyclo[3.1.0]hexan-3-yl)-3-methyl-4-oxo-6-(trifluoromethyl)-3,4-dihydroquinazolin-8-yl)ethyl)amino)benzoic acid]"
7,< 500,"Cc1cc(C(C)Nc2ccccc2C(=O)O)c2nc(N3CCN(C(=O)C4CCCC4)CC3)n(C)c(=O)c2c1 (stereo not shown) [Example 91, 2-((1-(2-(4-(Cyclopentanecarbonyl)piperazin-1-yl)-3,6-dimethyl-4-oxo-3,4-dihydroquinazolin-8-yl)ethyl)amino)benzoic acid]"

# Same assay, conditions: two hours of treatment, read-out: T47D pAKT IC50
row,SMILES,IC50 [nM]
1,"Cc1cc(C(C)Nc2ccccc2C(=O)O)c2nc(N3C[C@@H]4[C@H](C3)[C@H]4NC(=O)OCC3CCCO3)n(C)c(=O)c2c1 (stereo partly drawn) [Example 64, 2-((1-(3,6-dimethyl-4-oxo-2-((1R,5S,6s)-6-((((tetrahydrofuran-2-yl)methoxy)carbonyl)amino)-3-azabicyclo[3.1.0]hexan-3-yl)-3,4-dihydroquinazolin-8-yl)ethyl)amino)benzoic acid]",500 to 10000
2,"Cc1cc(C(C)Nc2ccccc2C(=O)O)c2nc(N3C[C@@H]4[C@H](C3)[C@H]4C(=O)N(C)CC(F)F)n(C)c(=O)c2c1 (stereo partly drawn) [Example 84, 2-((1-(2-((1R,5S,6R)-6-((2,2-Difluoroethyl)(methyl)carbamoyl)-3-azabicyclo[3.1.0]hexan-3-yl)-3,6-dimethyl-4-oxo-3,4-dihydroquinazolin-8-yl)ethyl)amino)benzoic acid]",< 500
3,"Cc1cc(C(C)Nc2ccccc2C(=O)O)c2nc(N3C[C@@H]4C(NC(=O)OCc5ccccc5)[C@@H]4C3)n(C)c(=O)c2c1 (stereo partly drawn) [Example 59, 2-((1-(2-((1R,5S,6s)-6-(((benzyloxy)carbonyl)amino)-3-azabicyclo[3.1.0]hexan-3-yl)-3,6-dimethyl-4-oxo-3,4-dihydroquinazolin-8-yl)ethyl)amino)benzoic acid]",500 to 10000
